Reference: patent EP0233459A1, “Medicament containing a magnesium-urea complex of acetylsalicylic acid and process for the preparation of this complex” (ARTIKA INTERNATIONAL (HONG-KONG) LIMITED, priority 1986, dated 1987)

Key:
oreille de lapin = settings: in vivo
Excerpt: Une expérience a été menée sur lapins, afin de déterminer le temps de saignement modifié par l'administration d'ASMU et d'aspirine à doses équivalentes.

souris [1] = test: Hot plate test (analgesic activity); assay type: in vivo; settings: moyenne de dix essais
Excerpt: Le test dit "de la plaque chauffante" a donc été pratiqué pour déterminer de la valeur de l'ASMU en comparaison avec l'aspirine. Le principe de la méthode consiste à poser une souris sur une plaque dont on a élevé la température en fonction du temps. On note la température à laquelle la souris saute, la sensation de chaleur devenant douleur. Cette température est relativement fixe pour chaque animal.
En recommançant la même expérience avec la souris après administration d'une dose d'un analgésique, on notera une température plus élevée qui sera fonction de la dose et de l'action antalgique de la substance.
Dans le tableau V ci-après ont été rassemblés les ré-sultats, correspondants à une moyenne de dix essais obtenus pour l'aspirine (AAS), l'"ASPEGIC" (ASL) et l'ASMU.

[2] = system: oedème provoqué sur patte de rat; test: Induced rat paw oedema (formol or ovalbumine; tables do not say which); assay type: in vivo; settings: for Δ V1 heure: 1 heure; for Δ V1 heure / Δ V3 heures / VARIATIONS DE VOLUME EXPRIME EN % / INDICE DE PROTECTION: 20 mg/kg en équivalent aspirine; for Δ V3 heures: 3 heures
Protocol: Deux tests de production d'oedème provoqué sur patte de rat, l'un au formol, et l'autre à l'ovalbumine ont été choisis. Dans les deux cas les mesures ont été opérées en incluant une série d'animaux traitée avec de l'aspirine, en comparaison de celle traitée avec l'ASMU.
La dose d'anti-inflammatoire est de 20 mg/kg dans les trois cas, en équivalent aspirine.

muqueuse gastrique = assay type: in vivo, rat
Excerpt: En addition des résultats obtenus lors de l'étude de la toxicité générale de l'ASMU, une expérimentation particulière a été menée sur le rat pour déterminer de façon plus précise l'action irritant sur la muqueuse gastrique que peut développer l'ASMU par rapport à l'aspirine.
Le rat placé dans des conditions de contrainte (cage de petite dimension, n'interdisant pas le mouvement, mais empêchant l'animal de se déplacer et même de se retourner) pendant une durée de douze heures pendant plusieurs jours, développe rapidement une irritation de l'estomac qui évolue jusqu'à l'ulcère.
Sur cet animal sensibilisé, on peut tester, en même temps que la contrainte, l'action de médicaments irritants qui accélèrent le processus de formation de l'ulcère. En fin d'expé-rience, on sacrifie les animaux, et l'examen de la muqueuse gastrique permet de tirer des conclusions sur le pouvoir irritant des substances en comparaison avec les produits de référence.

[3] = une heure après l'administration, literature knowledge; cited from earlier work
[4] = même dose d'aspirine, une heure après administration; 60 min; cited from earlier work
[5] = aspirine, literature knowledge; cited from earlier work
rat [6] = settings: in vivo
Excerpt: (§1) Des expérimentations ont été réalisées sur l'ASMU. La toxicité aiguë a été étudiée par la détermination classique de la DL₅₀, correspondant à la dose de substance qui, administrée à un groupe d'animaux, provoque la port de la moitié d'entre eux.

souris [7] = settings: in vivo
Excerpt: as §1

rat [8] = settings: in vivo; remark: listed apart in the source
[9] = system: ostéochondrites déformantes infectieuses; test: Therapeutic use in infectious deforming osteochondritis; assay type: in vivo; settings: tous les cas traités
Excerpt: A titre d'exemple d'application thérapeutique inhabituelle, on a pu observer l'action curative de l'ASMU dans le traitement d'ostéochondrites déformantes infectieuses. […] Seule la déformation a persisté lorsqu'elle existait, comme on pouvait s'y attendre.

porc = settings: in vivo
[10] = état sec
[11] = in vivo
Excerpt: L'étude de la biodisponibilité de l'ASMU a été effec­tuée sur diverses espèces animales et sur l'homme, en réalisant des dosages de la forme acétylée et désacétylée dans le temps.

[12] = in vivo; remark: listed apart in the source
[13] = human, in vivo, po, 5 h
[14] = pH of the aqueous solution; assay type: physicochemical; settings: solution aqueuse, dix pour cent (p/v)
Excerpt: La solution aqueuse du complexe ASMU, à concentration de dix pour cent (p/v), présente une valeur de pH très proche de 6, donc proche de la neutralité et tout à fait compatible avec celui du pH sanguin.

CC(=O)Oc1ccccc1C(=O)O [A S L]
ALLONGEMENT DU TEMPS DE SAIGNEMENT (oreille de lapin): 35%
Δt(°C) (souris [1]; 1 heure après administration): 2,15 °C
Δt(°C) (souris [1]; 2 heures après administration): 1,90 °C
Δt(°C) (souris [1]; 3 heures après administration): 0,45 °C
Δt(°C) (souris [1]; ½ heure après administration): 1,25 °C
Δ V1 heure ([2]; 20 mg/kg): 0,490±0,04 cm^3
Δ V3 heures ([2]; 20 mg/kg): 0,700±0,15 cm^3
VARIATIONS DE VOLUME EXPRIME EN % ([2]; A 1 heure, 20 mg/kg): 50,16%
VARIATIONS DE VOLUME EXPRIME EN % ([2]; A 3 heures, 20 mg/kg): 72,29%
INDICE DE PROTECTION ([2]; à 1 heure, 20 mg/kg): 35%
INDICE DE PROTECTION ([2]; à 3 heures, 20 mg/kg): 43%

CC(=O)Oc1ccccc1C(=O)O [AAS, aspirine]
animaux traités avec ulcères (muqueuse gastrique; rat sous contrainte): 80 pour cent
part de la dose initiale sous la forme acétylée [3]: ~10 pour 100
ALLONGEMENT DU TEMPS DE SAIGNEMENT (oreille de lapin): 66%
quantités d'aspirine retrouvées dans le sang [4]: ~3 mg par litre
part de la dose absorbée par l'organisme [5]: deux tiers
Δt(°C) (souris [1]; 1 heure après administration): 1,15 °C
Δt(°C) (souris [1]; 2 heures après administration): 1,40 °C
Δt(°C) (souris [1]; 3 heures après administration): 0,75 °C
Δt(°C) (souris [1]; ½ heure après administration): 0,90 °C
Δ V1 heure ([2]; 20 mg/kg): 0,580±0,03 cm^3
Δ V3 heures ([2]; 20 mg/kg): 0,930±0,05 cm^3
VARIATIONS DE VOLUME EXPRIME EN % ([2]; A 1 heure, 20 mg/kg): 72%
VARIATIONS DE VOLUME EXPRIME EN % ([2]; A 3 heures, 20 mg/kg): 115,01%
INDICE DE PROTECTION ([2]; à 1 heure, 20 mg/kg): 7%
INDICE DE PROTECTION ([2]; à 3 heures, 20 mg/kg): 10%

CC(=O)Oc1ccccc1C(=O)[O-].CC(=O)Oc1ccccc1C(=O)[O-].NC(N)=O.[Mg+2] [ASMU, acétylsalicylate de magnésium-urée]
toxicité aiguë (DL₅₀) diminuée par rapport à l'équivalent aspirine (rat [6]): ~20 pour cent
toxicité aiguë (DL₅₀) diminuée par rapport à l'équivalent aspirine (souris [7]): ~20 pour cent
irritation de la muqueuse gastrique (muqueuse gastrique; rat, in vivo): irritation comparable, mais légèrement supérieure à celle des témoins
toxicité chronique: examens cliniques et anatomopathologiques (rat [8]): n'a pas provoqué d'anomalie particulière
toxicité chronique: lésion rénale ou stomacale (rat [8]): aucun signe de lésion rénale ou stomacale
action curative [9]: l'inflammation a regressé, puis disparu
toxicité chronique: examens cliniques et anatomopathologiques (porc): n'a pas provoqué d'anomalie particulière
toxicité chronique: lésion rénale ou stomacale (porc): aucun signe de lésion rénale ou stomacale
durée de conservation sans altération notable [10]: deux ans et demi
acétylsalicylémie, fois plus élevée que celle d'une dose équivalente d'aspirine [11]: entre dix et quinze
salicylémie moyenne, % de la quantité circulante [11]: ~10 pour cent
ALLONGEMENT DU TEMPS DE SAIGNEMENT (oreille de lapin): 7%
absorption [12]: pratiquement complète
Δt(°C) (souris [1]; 1 heure après administration): 4,75 °C
Δt(°C) (souris [1]; 2 heures après administration): 4,90 °C
Δt(°C) (souris [1]; 3 heures après administration): 4,90 °C
Δt(°C) (souris [1]; ½ heure après administration): 3,70 °C
acétylsalicylémie [13]: 40 mg par litre de plasma
pH [14]: ~6
Δ V1 heure [2]: 0,150±0,04 cm^3
Δ V3 heures [2]: 0,170±0,03 cm^3
VARIATIONS DE VOLUME EXPRIME EN % ([2]; A 1 heure): 16,48%
VARIATIONS DE VOLUME EXPRIME EN % ([2]; A 3 heures): 18,61%
activité anti-inflammatoire par rapport à celle de l'aspirine ([2]; en moyenne, tests au formol et à l'ovalbumine): dix fois supérieure
INDICE DE PROTECTION ([2]; à 1 heure): 78,6%
INDICE DE PROTECTION ([2]; à 3 heures): 85,4%
